ChEMBL document CHEMBL1147038, “Structural basis for the specific inhibition of protein kinase G, a virulence factor of Mycobacterium tuberculosis” (Proc Natl Acad Sci U S A, 2007)
The source made the active and inactive calls. The calls are words filed in the database; no cut-off is given here.

Assays:
[1] = tested on: Mycobacterium tuberculosis; assay: Inhibition of Mycobacterium tuberculosis PKnG-I87S/A92S mutant at 25 uM by autoradiography
[2] = tested on: Mycobacterium tuberculosis; assay: Inhibition of Mycobacterium tuberculosis PKnGdeltaN mutant at 63 uM by autoradiography

SMILES: NC(=O)c1c(NC(=O)C2CC2)sc2c1CCCC2
- inhibition [1]: > 50%
- Activity [2]: Active
